Reference: patent publication US10376584B2, “Stable pharmaceutical formulations of methylnaltrexone” (Progenics Pharmaceuticals, Inc., priority 2003, dated 2019)

Experiment: Autoclaving of methylnaltrexone solutions (122° C., 15 lbs. pressure for 20 min), degradation products
Format: physicochemical
Procedure: Applicants have discovered that during the autoclaving process, methylnaltrexone in aqueous solution tends to degrade to a surprising extent. The amount of degradation resulting from simple autoclaving (122° C., 15 lbs. pressure for 20 min.) can be as high as […]. The degradation products are depicted in FIG. 1, and appear to include at least two predominant degradants having relative retention times (RRT) of 0.72 (2.828 minutes) and 0.89 (3.435 minutes) and, with other minor forms as can be observed. The degradant identified by the 0.72 RRT peak appears in small amounts, 0.074, immediately upon dissolving the methylnaltrexone into solution and increases overtime with storage or autoclaving 0.25%. The degradant identified by the 0.89 RRT peak appears only after storage over time or after autoclaving (<0.05% and 0.724%, respectively). Applicants also have discovered that methylnaltrexone is unstable in aqueous solutions when stored at room temperature or even at 4° C. for significant (but commercially necessary) periods of time such as 6 months, 12 months or even two years. Degradation occurs without regard to whether the aqueous solution was previously autoclaved or filter sterilized. It would be desirable to stabilize formulations of methylnaltrexone such that following the autoclaving process or following storage (or both autoclaving and storage), the amount of the total degradation products would be less than 2.0%, 1.5%, 1.0%, 0.5%, 0.25%, and even 0.125%.
The invention provides stable formulations of methylnaltrexone. By stable solutions of methylnaltrexone, it is meant that following autoclaving at 122° C., 15 lbs. pressure for 20 minutes, the methylnaltrexone degradation products resulting from such conditions are not more than 2% of the total methylnaltrexone present in a given solution. […]

Compound: C[N@+]1(CC2CC2)CC[C@]23c4c5ccc(O)c4O[C@H]2C(=O)CC[C@@]3(O)[C@H]1C5 [methylnaltrexone]
- levels of degradation products after autoclaving with buffering agents (buffers in concentrations ranging from 0.25 mM to 25 mM): Acceptable levels of degradation products
- stability to autoclaving by adjustment of pH alone (pH between 4.25 and 6): not sufficient to produce stable formulations
- pH of the autoclaved sample (pH set between 3.0 and 6.0 with pH-adjusting acid or base prior to autoclaving, no buffer): about 7.0
